Source: patent US9969742B2, “Imidazotriazinone compounds” (Ironwood Pharmaceuticals, Inc., priority 2012, dated 2018)
Like-named read-outs stand apart in the source and are kept apart here.

Assays:
Format in all cases: biochemical
[1] = target: T1, PDE9A2 (Homo sapiens, UniProt O76083); experiment: Phosphodiesterase enzyme screening assay, PDE9A2
T1 construct: purchased Reaction Biology Corporation, Malvern, Pa
In short: (§1)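 Microfluidic mobility-shift assay; values from quadruplicate wells relative to controls. Conditions: 4.0 μM cGMP, 5 mM MgCl2, pH 7.5 HEPES, 1 h R.T., EDTA stop.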

[2] = target: T2, PDE1A (Homo sapiens, UniProt P54750); experiment: Phosphodiesterase enzyme screening assay, PDE1A; conditions: value greater than 1 indicates greater selectivity for PDE9A2
T2 construct: purchased Reaction Biology Corporation, Malvern, Pa
T2 sequence (P54750 whole entry): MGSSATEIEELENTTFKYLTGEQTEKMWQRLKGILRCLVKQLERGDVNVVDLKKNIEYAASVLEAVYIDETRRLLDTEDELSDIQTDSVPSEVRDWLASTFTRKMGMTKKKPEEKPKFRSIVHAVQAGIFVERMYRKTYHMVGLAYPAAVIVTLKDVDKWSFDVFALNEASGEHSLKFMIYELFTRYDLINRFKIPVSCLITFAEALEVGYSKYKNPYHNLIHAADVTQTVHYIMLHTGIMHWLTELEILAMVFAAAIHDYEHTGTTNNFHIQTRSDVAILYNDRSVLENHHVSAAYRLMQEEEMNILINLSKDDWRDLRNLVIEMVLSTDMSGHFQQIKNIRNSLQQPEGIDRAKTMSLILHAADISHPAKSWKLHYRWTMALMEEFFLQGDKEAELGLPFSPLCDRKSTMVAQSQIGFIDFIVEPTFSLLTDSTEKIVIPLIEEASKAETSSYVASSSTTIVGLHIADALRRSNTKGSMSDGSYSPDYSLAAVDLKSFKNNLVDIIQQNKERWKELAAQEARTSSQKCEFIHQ
In short: as §1

[3] = target: T3, PDE1B (Homo sapiens, UniProt Q01064); experiment: Phosphodiesterase enzyme screening assay, PDE1B; conditions: value greater than 1 indicates greater selectivity for PDE9A2
T3 construct: purchased Reaction Biology Corporation, Malvern, Pa
T3 sequence (Q01064 whole entry): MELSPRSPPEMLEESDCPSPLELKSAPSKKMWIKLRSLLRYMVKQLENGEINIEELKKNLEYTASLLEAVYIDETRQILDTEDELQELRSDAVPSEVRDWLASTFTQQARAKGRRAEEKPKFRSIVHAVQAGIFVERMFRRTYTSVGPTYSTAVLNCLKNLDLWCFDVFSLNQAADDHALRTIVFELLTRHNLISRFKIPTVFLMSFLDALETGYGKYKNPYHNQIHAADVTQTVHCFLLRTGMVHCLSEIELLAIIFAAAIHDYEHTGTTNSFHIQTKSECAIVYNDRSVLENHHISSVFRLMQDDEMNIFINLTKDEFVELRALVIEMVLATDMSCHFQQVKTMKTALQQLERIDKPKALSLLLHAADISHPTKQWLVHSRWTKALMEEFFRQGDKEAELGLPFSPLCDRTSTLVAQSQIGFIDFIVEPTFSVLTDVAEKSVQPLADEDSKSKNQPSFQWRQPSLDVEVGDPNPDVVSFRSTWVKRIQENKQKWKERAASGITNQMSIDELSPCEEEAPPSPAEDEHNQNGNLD
In short: as §1

[4] = ratio of IC50 values, PDE1A versus PDE9A2
[5] = ratio of IC50 values, PDE1B versus PDE9A2
[6] = IC50 band, 4.0 μM cGMP substrate, 1 hour at R.T.
[7] = ratio of IC50 values PDE1A vs PDE9A2
[8] = ratio of IC50 values PDE1B vs PDE9A2
[9] = Table 1, 10 concentrations, 4.0 μM cGMP substrate, 1 hour at R.T., read-out: Band (PDE9A2 IC50)

T1 sequence (O76083 1-533 isoform O76083-2): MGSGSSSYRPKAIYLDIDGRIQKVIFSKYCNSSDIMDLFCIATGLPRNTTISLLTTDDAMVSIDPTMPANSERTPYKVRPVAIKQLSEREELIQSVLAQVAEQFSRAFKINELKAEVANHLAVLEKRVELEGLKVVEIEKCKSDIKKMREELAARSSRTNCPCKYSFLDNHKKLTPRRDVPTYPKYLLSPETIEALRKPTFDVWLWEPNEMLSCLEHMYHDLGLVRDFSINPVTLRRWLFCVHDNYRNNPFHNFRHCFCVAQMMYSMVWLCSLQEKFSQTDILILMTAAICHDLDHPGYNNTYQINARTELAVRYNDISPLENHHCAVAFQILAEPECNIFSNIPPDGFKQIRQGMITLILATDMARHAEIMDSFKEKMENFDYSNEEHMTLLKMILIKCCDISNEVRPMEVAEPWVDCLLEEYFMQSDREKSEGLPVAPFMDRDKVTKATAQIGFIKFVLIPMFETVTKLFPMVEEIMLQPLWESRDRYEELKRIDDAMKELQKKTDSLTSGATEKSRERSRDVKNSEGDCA

Row | IC50 ([1]; read-out: Band (PDE9A2 IC50)) | PDE1A selectivity (versus PDE9A2) [2, 4] | PDE1B selectivity (versus PDE9A2) [3, 5] | IC50 [1, 6] | PDE1A selectivity (versus PDE9A2) [2, 7] | PDE1B selectivity (versus PDE9A2) [3, 8] | SMILES | other results
1 | < 1 µM | 232 | 179 | – | – | – | Cc1cc(F)c(F)cc1-c1ncc2c(=O)[nH]c(C3CN(Cc4ccc(F)cc4)CC3C)nn12 (single isomer, unassigned; (+)) [(+)-7-(4,5-difluoro-2-methylphenyl)-2-((3,4-trans)-1-(4-fluorobenzyl)-4-methylpyrrolidin-3-yl)imidazo[5,1-f][1,2,4]triazin-4(3H)-one] | –
2 | < 1 µM | 2510 | 9350 | – | – | – | Cc1cc(F)c(F)cc1-c1ncc2c(=O)[nH]c(C3CN(Cc4cn5ccccc5n4)CC3C)nn12 (single isomer, unassigned; (+)) [(+)-7-(4,5-difluoro-2-methylphenyl)-2-((3,4-trans)-1-(imidazo[1,2-a]pyridin-2-ylmethyl)-4-methylpyrrolidin-3-yl)imidazo[5,1-f][1,2,4]triazin-4(3H)-one] | –
3 | < 1 µM | 44 | 85 | – | – | – | Cc1cc(F)c(F)cc1-c1ncc2c(=O)[nH]c(C3CN(Cc4ncccn4)CC3C)nn12 (single isomer, unassigned; (+)) [(+)-7-(4,5-difluoro-2-methylphenyl)-2-((3,4-trans)-4-methyl-1-(pyrimidin-2-ylmethyl)pyrrolidin-3-yl)imidazo[5,1-f][1,2,4]triazin-4(3H)-one] | –
4 | – | – | – | < 1 µM | 345 | 493 | Cc1cc(F)ccc1-c1ncc2c(=O)[nH]c(C3CN(Cc4ccc(F)cc4)CC3C)nn12 (single isomer, unassigned; (+)) [(+)-7-(4-fluoro-2-methylphenyl)-2-((3,4-trans)-1-(4-fluorobenzyl)-4-methylpyrrolidin-3-yl)imidazo[5,1-f][1,2,4]triazin-4(3H)-one] | –
5 | – | – | – | < 1 µM | 339 | 792 | Cc1cc(F)ccc1-c1ncc2c(=O)[nH]c(C3CN(Cc4cn5ccccc5n4)CC3C)nn12 (single isomer, unassigned; (+)) [(+)-7-(4-fluoro-2-methylphenyl)-2-((3,4-trans)-1-(imidazo[1,2-a]pyridin-2-ylmethyl)-4-methylpyrrolidin-3-yl)imidazo[5,1-f][1,2,4]triazin-4(3H)-one] | –
6 | – | – | – | < 1 µM | 342 | 393 | Cc1cc(F)ccc1-c1ncc2c(=O)[nH]c(C3CN(Cc4cnccn4)CC3C)nn12 (single isomer, unassigned; (+)) [(+)-7-(4-fluoro-2-methylphenyl)-2-((3,4-trans)-4-methyl-1-(pyrazin-2-ylmethyl)pyrrolidin-3-yl)imidazo[5,1-f][1,2,4]triazin-4(3H)-one] | –
7 | – | – | – | < 1 µM | 5780 | 374 | Cc1cc(F)ccc1-c1ncc2c(=O)[nH]c(C3CN(Cc4ccccn4)CC3C)nn12 (single isomer, unassigned; (+)) [(+)-7-(4-fluoro-2-methylphenyl)-2-((3,4-trans)-4-methyl-1-(pyridin-2-ylmethyl)pyrrolidin-3-yl)imidazo[5,1-f][1,2,4]triazin-4(3H)-one] | –
8 | – | – | – | < 1 µM | 452 | 492 | Cc1cc(F)ccc1-c1ncc2c(=O)[nH]c(C3CN(Cc4cccnc4)CC3C)nn12 (single isomer, unassigned; (+)) [(+)-7-(4-fluoro-2-methylphenyl)-2-((3,4-trans)-4-methyl-1-(pyridin-3-ylmethyl)pyrrolidin-3-yl)imidazo[5,1-f][1,2,4]triazin-4(3H)-one] | –
9 | < 1 µM | 120 | 209 | – | – | – | CC1CN(Cc2cn3ccccc3n2)CC1c1nn2c(-c3ccc(F)cc3)ncc2c(=O)[nH]1 (single isomer, unassigned; (+)) [(+)-7-(4-fluorophenyl)-2-((3,4-trans)-1-(imidazo[1,2-a]pyridin-2-ylmethyl)-4-methylpyrrolidin-3-yl)imidazo[5,1-f][1,2,4]triazin-4(3H)-one] | –
10 | < 1 µM | 9 | 8 | – | – | – | CC1CN(Cc2cnccn2)CC1c1nn2c(-c3ccc(F)cc3)ncc2c(=O)[nH]1 (single isomer, unassigned; (+)) [(+)-7-(4-fluorophenyl)-2-((3,4-trans)-4-methyl-1-(pyrazin-2-ylmethyl)pyrrolidin-3-yl)imidazo[5,1-f][1,2,4]triazin-4(3H)-one] | –
11 | – | – | – | < 1 µM | 1738 | 393 | Cc1ccc(F)cc1-c1ncc2c(=O)[nH]c(C3CN(Cc4ccc(F)cc4)CC3C)nn12 (single isomer, unassigned; (+)) [(+)-7-(5-fluoro-2-methylphenyl)-2-((3,4-trans)-1-(4-fluorobenzyl)-4-methylpyrrolidin-3-yl)imidazo[5,1-f][1,2,4]triazin-4(3H)-one] | –
12 | – | – | – | < 1 µM | 1437 | 1427 | Cc1ccc(F)cc1-c1ncc2c(=O)[nH]c(C3CN(Cc4cn5ccccc5n4)CC3C)nn12 (single isomer, unassigned; (+)) [(+)-7-(5-fluoro-2-methylphenyl)-2-((3,4-trans)-1-(imidazo[1,2-a]pyridin-2-ylmethyl)-4-methylpyrrolidin-3-yl)imidazo[5,1-f][1,2,4]triazin-4(3H)-one] | –
13 | – | – | – | < 1 µM | 85 | 74 | Cc1ccc(F)cc1-c1ncc2c(=O)[nH]c(C3CN(Cc4cnccn4)CC3C)nn12 (single isomer, unassigned; (+)) [(+)-7-(5-fluoro-2-methylphenyl)-2-((3,4-trans)-4-methyl-1-(pyrazin-2-ylmethyl)pyrrolidin-3-yl)imidazo[5,1-f][1,2,4]triazin-4(3H)-one] | –
14 | – | – | – | < 1 µM | 560 | 277 | Cc1ccc(F)cc1-c1ncc2c(=O)[nH]c(C3CN(Cc4ccccn4)CC3C)nn12 (single isomer, unassigned; (+)) [(+)-7-(5-fluoro-2-methylphenyl)-2-((3,4-trans)-4-methyl-1-(pyridin-2-ylmethyl)pyrrolidin-3-yl)imidazo[5,1-f][1,2,4]triazin-4(3H)-one] | –
15 | – | – | – | < 1 µM | 770 | 505 | Cc1ccc(F)cc1-c1ncc2c(=O)[nH]c(C3CN(Cc4cccnc4)CC3C)nn12 (single isomer, unassigned; (+)) [(+)-7-(5-fluoro-2-methylphenyl)-2-((3,4-trans)-4-methyl-1-(pyridin-3-ylmethyl)pyrrolidin-3-yl)imidazo[5,1-f][1,2,4]triazin-4(3H)-one] | –
16 | < 1 µM | 41 | 104 | – | – | – | CC1CN(Cc2ccc(F)cc2)CC1c1nn2c(C3CCCC3)ncc2c(=O)[nH]1 (single isomer, unassigned; (+)) [(+)-7-cyclopentyl-2-((3,4-trans)-1-(4-fluorobenzyl)-4-methylpyrrolidin-3-yl)imidazo[5,1-f][1,2,4]triazin-4(3H)-one] | –
17 | < 1 µM | 57 | 125 | – | – | – | CC1CN(Cc2cn3ccccc3n2)CC1c1nn2c(C3CCCC3)ncc2c(=O)[nH]1 (single isomer, unassigned; (+)) [(+)-7-cyclopentyl-2-((3,4-trans)-1-(imidazo[1,2-a]pyridin-2-ylmethyl)-4-methylpyrrolidin-3-yl)imidazo[5,1-f][1,2,4]triazin-4(3H)-one] | –
18 | < 1 µM | 60 | 45 | – | – | – | CC1CN(Cc2ncccn2)CC1c1nn2c(C3CCCC3)ncc2c(=O)[nH]1 (single isomer, unassigned; (+)) [(+)-7-cyclopentyl-2-((3,4-trans)-4-methyl-1-(pyrimidin-2-ylmethyl)pyrrolidin-3-yl)imidazo[5,1-f][1,2,4]triazin-4(3H)-one] | –
19 | – | – | – | – | – | – | CC1CN(Cc2ccc(F)cc2)CC1c1nn2c(C3CCC(F)(F)CC3)ncc2c(=O)[nH]1 (single isomer, unassigned; (+)) [(+)-(4,4-difluorocyclohexyl)-2-((3,4-trans)-1-(4-fluorobenzyl)-4-methylpyrrolidin-3-yl)imidazo[5,1-f][1,2,4]triazin-4(3H)-one] | IC50 [1, 9]: < 1 µM; PDE1A selectivity (versus PDE9A2) ([2]; Table 1, ratio of IC50 values): 1453; PDE1B selectivity (versus PDE9A2) ([3]; Table 1, ratio of IC50 values): 2980
20 | – | – | – | – | – | – | CC1CN(C)CC1c1nn2c(C3CCOCC3)ncc2c(=O)[nH]1 (single isomer, unassigned; (+)) [(+)-((3,4-trans)-1,4-dimethylpyrrolidin-3-yl)-7-(tetrahydro-2H-pyran-4-yl)imidazo[5,1-f][1,2,4]triazin-4(3H)-one] | IC50 [1, 9]: < 1 µM; PDE1A selectivity (versus PDE9A2) ([2]; Table 1, ratio of IC50 values): 75; PDE1B selectivity (versus PDE9A2) ([3]; Table 1, ratio of IC50 values): 121
21 | – | – | – | – | – | – | CC1CN(Cc2ccccc2C2CC2)CC1c1nn2c(C3CCOCC3)ncc2c(=O)[nH]1 (single isomer, unassigned; (-)) [(−)-2-((3,4-trans)-1-(2-cyclopropylbenzyl)-4-methylpyrrolidin-3-yl)-7-(tetrahydro-2H-pyran-4-yl)imidazo[5,1-f][1,2,4]triazin-4(3H)-one] | IC50 [1, 9]: < 1 µM; PDE1A selectivity (versus PDE9A2) ([2]; Table 1, ratio of IC50 values): 685; PDE1B selectivity (versus PDE9A2) ([3]; Table 1, ratio of IC50 values): 505
